In assay [1] the target is T1, human GLP‐2R (Homo sapiens, UniProt O95838).
T1 sequence (O95838 1-553): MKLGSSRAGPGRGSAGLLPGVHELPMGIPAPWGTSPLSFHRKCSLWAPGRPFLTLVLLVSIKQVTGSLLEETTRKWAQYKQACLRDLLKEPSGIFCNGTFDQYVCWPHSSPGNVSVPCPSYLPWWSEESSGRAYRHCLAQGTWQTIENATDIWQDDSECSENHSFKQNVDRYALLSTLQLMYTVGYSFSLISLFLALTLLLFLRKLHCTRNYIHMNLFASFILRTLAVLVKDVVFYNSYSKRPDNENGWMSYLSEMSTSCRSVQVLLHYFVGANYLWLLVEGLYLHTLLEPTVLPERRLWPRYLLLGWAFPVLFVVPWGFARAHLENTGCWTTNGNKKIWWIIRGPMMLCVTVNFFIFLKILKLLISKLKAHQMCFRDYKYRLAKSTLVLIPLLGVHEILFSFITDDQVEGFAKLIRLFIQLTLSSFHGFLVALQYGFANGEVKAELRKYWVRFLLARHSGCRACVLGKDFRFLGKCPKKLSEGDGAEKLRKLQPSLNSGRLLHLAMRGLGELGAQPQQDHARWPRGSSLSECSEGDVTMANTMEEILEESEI
In words: Schild plot analysis of cAMP activation curve of GLP‐2. The format is cell-based. The arrangement: host or cells: COS-7 (transient, calcium phosphate). Conditions: COS‐7 cells, n = 5 in duplicate, read-out: Ki from Schild plot (pA2) (converted). Here is the method:
Statistical significance was accepted at P < 0.05.
We used a Schild plot approach, where we examined their ability to right‐shift the cAMP activation curve of native GLP‐2 (Figure 4a–d). For GLP‐2(2‐33), GLP‐(3‐33) and GLP‐2(4‐33), all having intrinsic activity, the Schild plot analysis was based on an equieffective DR (the concentrations at 60% of Emax). For GLP‐2(3‐33)[D3A], with no intrinsic activity, the Schild plot analysis was conducted based on the shift in the EC50 values for GLP‐2 with and without GLP‐2(3‐33)[D3A] as previously described (Sparre‐Ulrich et al., [2017]).

The target in assay [2] is T1, human GLP‐2R. In words: cAMP accumulation, agonism (HitHunter cAMP assay). Conditions: for Emax: COS-7, read-out: cAMP activation Emax ± SEM. In general terms: Cyclic AMP is a second messenger, typically raised through Gs and lowered through Gi signalling.
Assay [3] has as its target T1, human GLP‐2R. The assay can be described thus: cAMP accumulation, inhibition of GLP‐2‐induced activation. Conditions: for Inhibition of GLP‐2‐induced cAMP at the human GLP‐2R: at 1 μM peptide (highest tested concentration), COS‐7 cells.
Assay [4] deals with T1, human GLP‐2R. The assay can be described thus: cell-based. The conditions noted are these: SEM.
Method: After incubation, the cells were washed twice in 400 μl per well ice‐cold binding buffer and lysed using 500 μl per well of 200 mM NaOH with 1% SDS for 30 min. The samples were counted using the Wizard Gamma Counter (PerkinElmer, Waltham, MA).
Assay [5] has as its target human GLP‐1R (Homo sapiens, UniProt P43220). The assay can be described thus: cAMP accumulation, inhibition of GLP‐1‐mediated response (selectivity). Conditions: for inhibition at 1 µM: COS-7, read-out: Inhibition of GLP‐1‐mediated cAMP response at the human GLP‐1R.

Read-outs that look alike come from different tables or passages of the source. Peptide text beside a SMILES is read from it. * marks the point of attachment. C16 diacid = O=C(O)CCCCCCCCCCCCCCC(=O)*

Chain of human GLP‐1R (P43220 24-463): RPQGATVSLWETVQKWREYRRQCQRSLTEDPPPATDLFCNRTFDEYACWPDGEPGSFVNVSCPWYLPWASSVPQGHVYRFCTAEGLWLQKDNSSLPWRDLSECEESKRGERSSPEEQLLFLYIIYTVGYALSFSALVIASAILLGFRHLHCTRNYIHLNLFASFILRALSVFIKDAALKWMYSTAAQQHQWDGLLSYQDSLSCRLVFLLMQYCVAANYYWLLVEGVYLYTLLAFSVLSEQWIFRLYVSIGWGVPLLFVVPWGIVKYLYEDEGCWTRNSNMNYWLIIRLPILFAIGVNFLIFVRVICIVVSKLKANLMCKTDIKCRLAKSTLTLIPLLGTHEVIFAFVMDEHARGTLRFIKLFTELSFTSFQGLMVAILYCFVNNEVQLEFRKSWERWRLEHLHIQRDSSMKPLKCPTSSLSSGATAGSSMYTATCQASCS

For the compound `CC[C@H](C)[C@H](NC(=O)[C@H](Cc1ccccc1)NC(=O)[C@H](CC(=O)O)NC(=O)[C@H](CCCNC(=N)N)NC(=O)[C@H](C)NC(=O)[C@H](C)NC(=O)[C@H](CC(C)C)NC(=O)[C@H](CC(N)=O)NC(=O)[C@H](CC(=O)O)NC(=O)[C@H](CC(C)C)NC(=O)[C@@H](NC(=O)[C@@H](NC(=O)[C@H](CC(N)=O)NC(=O)[C@H](CCSC)NC(=O)[C@H](CCC(=O)O)NC(=O)[C@H](CC(=O)O)NC(=O)[C@H](CO)NC(=O)[C@H](Cc1ccccc1)NC(=O)[C@H](CO)NC(=O)CN)[C@@H](C)O)[C@@H](C)CC)C(=O)N[C@@H](CC(N)=O)C(=O)N[C@@H](Cc1c[nH]c2ccccc12)C(=O)N[C@@H](CC(C)C)C(=O)N[C@H](C(=O)N[C@@H](CCC(N)=O)C(=O)N[C@H](C(=O)N[C@@H](CCCCN)C(=O)N[C@H](C(=O)N[C@H](C(=O)N[C@@H](CC(=O)O)C(=O)O)[C@@H](C)O)[C@@H](C)CC)[C@@H](C)O)[C@@H](C)CC` [GLP‐2(4‐33)] (H-GSFSDEMNTILDNLAARDFINWLIQTKITD-OH), in assay [1], the Ki is 6.3 nM. This compound also yielded an EC50 in assay [2] of 158 nM. Also, the Emax in assay [2] (SEM) was 17 ± 2.6%. Further, the IC50 was 79.4 nM in assay [3] (SEM) and 6.31 nM in assay [4].
For `CC[C@H](C)[C@H](NC(=O)[C@H](Cc1ccccc1)NC(=O)[C@H](CC(=O)O)NC(=O)[C@H](CCCNC(=N)N)NC(=O)[C@H](C)NC(=O)[C@H](C)NC(=O)[C@H](CC(C)C)NC(=O)[C@H](CC(N)=O)NC(=O)[C@H](CC(=O)O)NC(=O)[C@H](CC(C)C)NC(=O)[C@@H](NC(=O)[C@@H](NC(=O)[C@H](CC(N)=O)NC(=O)[C@H](CCSC)NC(=O)[C@H](CCC(=O)O)NC(=O)[C@H](CC(=O)O)NC(=O)[C@H](CO)NC(=O)[C@H](Cc1ccccc1)NC(=O)[C@H](CO)NC(=O)CNC(=O)[C@@H](N)CC(=O)O)[C@@H](C)O)[C@@H](C)CC)C(=O)N[C@@H](CC(N)=O)C(=O)N[C@@H](Cc1c[nH]c2ccccc12)C(=O)N[C@@H](CC(C)C)C(=O)N[C@H](C(=O)N[C@@H](CCC(N)=O)C(=O)N[C@H](C(=O)N[C@@H](CCCCN)C(=O)N[C@H](C(=O)N[C@H](C(=O)N[C@@H](CC(=O)O)C(=O)O)[C@@H](C)O)[C@@H](C)CC)[C@@H](C)O)[C@@H](C)CC` [GLP‐2(3‐33)] (H-DGSFSDEMNTILDNLAARDFINWLIQTKITD-OH), the Emax in assay [2] (SEM) was determined as 21 ± 2.2%. Besides, in assay [5], the inhibition at 1 µM lay in the range of 30 to 38%.
Regarding `CC[C@H](C)[C@H](NC(=O)[C@H](Cc1ccccc1)NC(=O)[C@H](CC(=O)O)NC(=O)[C@H](CCCNC(=N)N)NC(=O)[C@H](C)NC(=O)[C@H](C)NC(=O)[C@H](CC(C)C)NC(=O)[C@H](CC(N)=O)NC(=O)[C@H](CC(=O)O)NC(=O)[C@H](CC(C)C)NC(=O)[C@@H](NC(=O)[C@@H](NC(=O)[C@H](CC(N)=O)NC(=O)[C@H](CCSC)NC(=O)[C@H](CCC(=O)O)NC(=O)[C@H](CC(=O)O)NC(=O)[C@H](CO)NC(=O)[C@H](Cc1ccccc1)NC(=O)[C@H](CO)NC(=O)CNC(=O)[C@H](CC(=O)O)NC(=O)CCCCCCCCCCCCCCC(=O)O)[C@@H](C)O)[C@@H](C)CC)C(=O)N[C@@H](CC(N)=O)C(=O)N[C@@H](Cc1c[nH]c2ccccc12)C(=O)N[C@@H](CC(C)C)C(=O)N[C@H](C(=O)N[C@@H](CCC(N)=O)C(=O)N[C@H](C(=O)N[C@@H](CCCCN)C(=O)N[C@H](C(=O)N[C@H](C(=O)N[C@@H](CC(=O)O)C(=O)O)[C@@H](C)O)[C@@H](C)CC)[C@@H](C)O)[C@@H](C)CC` [GLP‐2(3‐33)(C16‐diacid/3)] ({C16 diacid}-DGSFSDEMNTILDNLAARDFINWLIQTKITD-OH), the Emax in assay [2] worked out at 25%. For the same compound, in assay [5], it took 50 nM to reach half-maximal inhibition (IC50) and the inhibition at 1 µM is 91%. For the same compound, in assay [3], half-maximal inhibition (IC50) was put at 7.9 nM and the “Inhibition of GLP‐2‐induced cAMP at the human GLP‐2R” value stood at 87%.
Consider `CC[C@H](C)[C@H](NC(=O)[C@H](Cc1ccccc1)NC(=O)[C@H](CC(=O)O)NC(=O)[C@H](CCCNC(=N)N)NC(=O)[C@H](C)NC(=O)[C@H](C)NC(=O)[C@H](CC(C)C)NC(=O)[C@H](CCCCNC(=O)CCCCCCCCCCCCCCC(=O)O)NC(=O)[C@H](CC(=O)O)NC(=O)[C@H](CC(C)C)NC(=O)[C@@H](NC(=O)[C@@H](NC(=O)[C@H](CC(N)=O)NC(=O)[C@H](CCSC)NC(=O)[C@H](CCC(=O)O)NC(=O)[C@H](CC(=O)O)NC(=O)[C@H](CO)NC(=O)[C@H](Cc1ccccc1)NC(=O)[C@H](CO)NC(=O)CNC(=O)[C@@H](N)CC(=O)O)[C@@H](C)O)[C@@H](C)CC)C(=O)N[C@@H](CC(N)=O)C(=O)N[C@@H](Cc1c[nH]c2ccccc12)C(=O)N[C@@H](CC(C)C)C(=O)N[C@H](C(=O)N[C@@H](CCC(N)=O)C(=O)N[C@H](C(=O)N[C@@H](CCCCN)C(=O)N[C@H](C(=O)N[C@H](C(=O)N[C@@H](CC(=O)O)C(=O)O)[C@@H](C)O)[C@@H](C)CC)[C@@H](C)O)[C@@H](C)CC` [GLP‐2(3‐33)[N16K](C16‐diacid/16)] (H-DGSFSDEMNTILDK(C16 diacid)LAARDFINWLIQTKITD-OH), for which, in assay [5], the inhibition at 1 µM stood at 72%.
For `CC[C@H](C)[C@H](NC(=O)[C@H](Cc1ccccc1)NC(=O)[C@H](CC(=O)O)NC(=O)[C@H](CCCNC(=N)N)NC(=O)[C@H](C)NC(=O)[C@H](C)NC(=O)[C@H](CC(C)C)NC(=O)[C@H](CC(N)=O)NC(=O)[C@H](CC(=O)O)NC(=O)[C@H](CC(C)C)NC(=O)[C@@H](NC(=O)[C@@H](NC(=O)[C@H](CC(N)=O)NC(=O)[C@H](CCSC)NC(=O)[C@H](CCC(=O)O)NC(=O)[C@H](CC(=O)O)NC(=O)[C@H](CO)NC(=O)[C@H](Cc1ccccc1)NC(=O)[C@H](CO)NC(=O)CNC(=O)[C@H](C)N)[C@@H](C)O)[C@@H](C)CC)C(=O)N[C@@H](CC(N)=O)C(=O)N[C@@H](Cc1c[nH]c2ccccc12)C(=O)N[C@@H](CC(C)C)C(=O)N[C@H](C(=O)N[C@@H](CCC(N)=O)C(=O)N[C@H](C(=O)N[C@@H](CCCCN)C(=O)N[C@H](C(=O)N[C@H](C(=O)N[C@@H](CC(=O)O)C(=O)O)[C@@H](C)O)[C@@H](C)CC)[C@@H](C)O)[C@@H](C)CC` [GLP‐2(3‐33)[D3A]] (H-AGSFSDEMNTILDNLAARDFINWLIQTKITD-OH), in assay [1], the Ki is 40 nM. In assay [3], this compound returned an IC50 of 162 nM.
For the compound `CC[C@H](C)[C@H](NC(=O)[C@H](Cc1ccccc1)NC(=O)[C@H](CC(=O)O)NC(=O)[C@H](CCCNC(=N)N)NC(=O)[C@H](C)NC(=O)[C@H](C)NC(=O)[C@H](CC(C)C)NC(=O)[C@H](CC(N)=O)NC(=O)[C@H](CC(=O)O)NC(=O)[C@H](CC(C)C)NC(=O)[C@@H](NC(=O)[C@@H](NC(=O)[C@H](CC(N)=O)NC(=O)[C@H](CCSC)NC(=O)[C@H](CCC(=O)O)NC(=O)[C@H](CC(=O)O)NC(=O)[C@H](CO)NC(=O)[C@H](Cc1ccccc1)NC(=O)[C@H](CO)NC(=O)CCCCCCCCCCCCCCC(=O)O)[C@@H](C)O)[C@@H](C)CC)C(=O)N[C@@H](CC(N)=O)C(=O)N[C@@H](Cc1c[nH]c2ccccc12)C(=O)N[C@@H](CC(C)C)C(=O)N[C@H](C(=O)N[C@@H](CCC(N)=O)C(=O)N[C@H](C(=O)N[C@@H](CCCCN)C(=O)N[C@H](C(=O)N[C@H](C(=O)N[C@@H](CC(=O)O)C(=O)O)[C@@H](C)O)[C@@H](C)CC)[C@@H](C)O)[C@@H](C)CC` [GLP‐2(5‐33)(C16‐diacid/5)] ({C16 diacid}-SFSDEMNTILDNLAARDFINWLIQTKITD-OH), in assay [5], the IC50 turned out to be 40 nM and the inhibition at 1 µM is 67%. Further, in assay [3], the IC50 turned out to be 12.3 nM and the “Inhibition of GLP‐2‐induced cAMP at the human GLP‐2R” value was found to be 93%.

What is called Ki is the equilibrium dissociation constant of an inhibitor or competing ligand from its target. Usually EC50 stands for the concentration needed to bring the measured effect to its halfway point. As a reminder, the Emax is the greatest response seen or fitted, relative to the assay's reference. As usually defined, the IC50 is the point on the concentration scale where inhibition reaches its midpoint. As a reminder, the inhibition is the share of the control response that was lost under treatment.

Values taken from publication PMC9541843, “N‐terminal alterations turn the gut hormone GLP‐2 into an antagonist with gradual loss of GLP‐2 receptor selectivity towards more GLP‐1 receptor interaction” (British Journal of Pharmacology, 2022).
